Test system: NHBE cells
Assay: Biolog metabolic array: substrate use by NHBE cells with or without CA09 infection
Format: cell-based, human
Details: for Substrate use, 590 nm absorbance normalized to zero hour, 1 hr: Biolog PMM2, 1 hr; for Substrate use, 590 nm absorbance normalized to zero hour, 5 hr: Biolog PMM2, 5 hr; for Substrate use, 590 nm absorbance normalized to zero hour, 7 hr: Biolog PMM2, 7 hr; for Substrate use, 590 nm absorbance normalized to zero hour, 0 hr: Biolog PMM2, 0 hr
[1] = Control (uninfected) NHBE cells
[2] = Virus (CA09, MOI 1) infected NHBE cells
[3] = Virus (CA09-infected, MOI 1) NHBE cells

| SMILES | 590 nm absorbance normalized to zero hour (substrate use), 1 hr [1] | 590 nm absorbance normalized to zero hour (substrate use), 2 hr [1] | 590 nm absorbance normalized to zero hour (substrate use), 3 hr [1] | 590 nm absorbance normalized to zero hour (substrate use), 4 hr [1] | 590 nm absorbance normalized to zero hour (substrate use), 6 hr [1] | 590 nm absorbance normalized to zero hour (substrate use), 8 hr [1] | 590 nm absorbance normalized to zero hour (substrate use), 9 hr [1] | 590 nm absorbance normalized to zero hour (substrate use), 10 hr [1] | 590 nm absorbance normalized to zero hour (substrate use), 11 hr [1] | Substrate use, 590 nm absorbance normalized to zero hour, 1 hr [1] | Substrate use, 590 nm absorbance normalized to zero hour, 5 hr [1] | Substrate use, 590 nm absorbance normalized to zero hour, 7 hr [1] | Substrate use, 590 nm absorbance normalized to zero hour, 1 hr [2] | Substrate use, 590 nm absorbance normalized to zero hour, 5 hr [2] | Substrate use, 590 nm absorbance normalized to zero hour, 7 hr [2] | 590 nm absorbance normalized to zero hour (substrate use), 1 hr [3] | 590 nm absorbance normalized to zero hour (substrate use), 2 hr [3] | 590 nm absorbance normalized to zero hour (substrate use), 3 hr [3] | 590 nm absorbance normalized to zero hour (substrate use), 4 hr [3] | 590 nm absorbance normalized to zero hour (substrate use), 6 hr [3] | further results |
| --- | --- | --- | --- | --- | --- | --- | --- | --- | --- | --- | --- | --- | --- | --- | --- | --- | --- | --- | --- | --- | --- |
| O=C[C@H](O)[C@@H](O)[C@@H](O)[C@H](O)CO [D-Galactose] | 0.95 | 1.46 | 1.73 | 1.56 | 1.78 | 2.22 | 2.53 | 2.67 | 2.53 | 0.95 | 1.88 | 2.03 | 0.91 | 1.89 | 2.16 | 0.91 | 1.21 | 1.47 | 1.60 | 2.03 | 590 nm absorbance normalized to zero hour (substrate use), 8 hr [3]: 2.29; 590 nm absorbance normalized to zero hour (substrate use), 9 hr [3]: 2.54; 590 nm absorbance normalized to zero hour (substrate use), 10 hr [3]: 2.63; 590 nm absorbance normalized to zero hour (substrate use), 11 hr [3]: 2.86 |
| N[C@@H](C(=O)O)[C@@H](O)[C@H](O)[C@H](O)CO [D-Glucosaminic Acid] | 0.86 | 0.94 | 0.90 | 1.21 | 0.36 | 0.97 | 0.98 | 0.97 | 0.39 | 0.86 | 1.22 | 0.95 | 1.69 | 3.09 | 3.47 | 1.69 | 2.21 | 2.51 | 2.69 | 3.31 | 590 nm absorbance normalized to zero hour (substrate use), 0 hr [1]: 1.00; Substrate use, 590 nm absorbance normalized to zero hour, 0 hr [1]: 1.00; Substrate use, 590 nm absorbance normalized to zero hour, 0 hr [2]: 1.00; 590 nm absorbance normalized to zero hour (substrate use), 0 hr [3]: 1.00; 590 nm absorbance normalized to zero hour (substrate use), 8 hr [3]: 3.57; 590 nm absorbance normalized to zero hour (substrate use), 9 hr [3]: 3.89; 590 nm absorbance normalized to zero hour (substrate use), 10 hr [3]: 3.88; 590 nm absorbance normalized to zero hour (substrate use), 11 hr [3]: 3.32 |
| O=P(O)(O)O[C@H]1O[C@H](CO)[C@@H](O)[C@H](O)[C@H]1O [D-Glucose-1-Phosphate] | 1.01 | 1.31 | 1.24 | 1.16 | 0.33 | 1.03 | 1.09 | 1.06 | 0.93 | 1.01 | 1.12 | 1.10 | 1.74 | 3.94 | 4.56 | 1.74 | 2.39 | 2.86 | 3.20 | 4.34 | 590 nm absorbance normalized to zero hour (substrate use), 0 hr [1]: 1.00; Substrate use, 590 nm absorbance normalized to zero hour, 0 hr [1]: 1.00; Substrate use, 590 nm absorbance normalized to zero hour, 0 hr [2]: 1.00; 590 nm absorbance normalized to zero hour (substrate use), 0 hr [3]: 1.00; 590 nm absorbance normalized to zero hour (substrate use), 8 hr [3]: 4.91; 590 nm absorbance normalized to zero hour (substrate use), 9 hr [3]: 5.77; 590 nm absorbance normalized to zero hour (substrate use), 10 hr [3]: 5.49; 590 nm absorbance normalized to zero hour (substrate use), 11 hr [3]: 6.50 |
| O=C[C@H](O)[C@@H](O)[C@H](O)[C@H](O)COP(=O)(O)O [D-Glucose-6-Phosphate] | 1.14 | 1.18 | 3.24 | 1.30 | 0.74 | 1.28 | 1.38 | 2.69 | 1.87 | 1.14 | 1.48 | 2.93 | 2.01 | 4.92 | 5.87 | 2.01 | 3.00 | 3.61 | 4.04 | 5.47 | 590 nm absorbance normalized to zero hour (substrate use), 8 hr [3]: 6.35; 590 nm absorbance normalized to zero hour (substrate use), 9 hr [3]: 7.41; 590 nm absorbance normalized to zero hour (substrate use), 10 hr [3]: 7.21; 590 nm absorbance normalized to zero hour (substrate use), 11 hr [3]: 5.87 |
| O=C[C@H](O)[C@@H](O)[C@H](O)[C@H](O)C(=O)O [D-Glucuronic Acid] | 1.13 | 1.37 | 1.29 | 1.42 | 0.86 | 1.83 | 1.90 | 2.04 | 2.34 | 1.13 | 1.57 | 1.71 | 1.44 | 2.79 | 3.14 | 1.44 | 1.90 | 2.18 | 2.37 | 2.96 | 590 nm absorbance normalized to zero hour (substrate use), 8 hr [3]: 3.24; 590 nm absorbance normalized to zero hour (substrate use), 9 hr [3]: 3.62; 590 nm absorbance normalized to zero hour (substrate use), 10 hr [3]: 3.66; 590 nm absorbance normalized to zero hour (substrate use), 11 hr [3]: 3.99 |

Reference: patent US11083725B2 (priority 2014, dated 2021)
